Reference: patent US20230312587A1, “PTERIDINONE COMPOUNDS AND USES THEREOF” (Vertex Pharmaceutical Incorporated, priority 2018, published 2023)

Tested on: β-catenin-TCF-mediated reporter transcription activity in Colo 205 cells
Assay: Colo 205 reporter assay (TCF/LEF luciferase)
Format: cell-based
Settings: Homo sapiens, COLO 205, 5 h, Colo 205 TCF/LEF luciferase reporter, five hours after addition of compound; read-out: TCF reporter Colo205 IC50
How it was run: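 Luciferase signal from a TCF/LEF-driven reporter, stably integrated in Colo 205 colon cancer cells, was measured 5 h after compound addition.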

| SMILES | IC50 [nM] |
| --- | --- |
| CCOc1ccc(CCn2cc(CNc3nc(C)c4c(n3)N(C)[C@@H](C)C(=O)N4)cn2)cc1 [Compound 108, (7S)-2-(((1-(4-ethoxyphenethyl)-1H-pyrazol-4-yl)methyl)amino)-4,7,8-trimethyl-7,8-dihydropteridin-6(5H)-one] | 300 to 1000 |
| COc1c(F)ccc(Cn2cc(CNc3nc(C)c4c(n3)N(C)[C@@H](C)C(=O)N4)cn2)c1F [Compound 88, (7S)-2-(((1-(2,4-difluoro-3-methoxybenzyl)-1H-pyrazol-4-yl)methyl)amino)-4,7,8-trimethyl-7,8-dihydropteridin-6(5H)-one] | < 300 |
| Cc1nc(N[C@H]2C[C@H](Oc3ccc(OC(F)(F)F)cc3)C2)nc2c1N(C)C(=O)[C@H](C)N2C [Compound 325, (7S)-4,5,7,8-tetramethyl-2-((trans-3-(4-(trifluoromethoxy)phenoxy)-cyclobutyl)amino)-7,8-dihydropteridin-6(5H)-one] | 300 to 1000 |
| Cc1nc(N[C@H]2C[C@H](Sc3ccc(C(F)(F)F)cc3)C2)nc2c1N(C)C(=O)[C@H](C)N2C [Compound 320, (7S)-4,5,7,8-tetramethyl-2-((trans-3-((4(trifluoromethyl)phenyl)thio)-cyclobutyl)-amino)-7,8-dihydropteridin-6(5H)-one] | 1000 to 5000 |
| Cc1nc(NCc2cnn(Cc3ccnc(F)c3)c2)nc2c1NC(=O)[C@H](C)N2C [Compound 180, (7S)-2-(((1-((2-fluoropyridin-4-yl)methyl)-1H-pyrazol-4-yl)methyl)amino)-4,7,8-trimethyl-7,8-dihydropteridin-6(5H)-one] | < 300 |
| Cc1nc(N[C@H]2C[C@@H](COc3ccc(C(F)(F)F)nc3)C2)nc2c1NC(=O)C1(CCOC1)N2C (relative stereo) [Compound 697, 4′,8′-dimethyl-2′-((cis-3-(((6-(trifluoromethyl)pyridin-3-yl)oxy)methyl)cyclobutyl)amino)-4,5,5′,8′-tetrahydro-2H,6′H-spiro[furan-3,7′-pteridin]-6′-one] | 300 to 1000 |
| Cc1nc(NCc2cnn(C[C@@H]3CCCN3c3cc(F)cc(F)c3)c2)nc2c1NC(=O)[C@H](C)N2C [Compound 219, (7S)-2-(((1-(((S)-1-(3,5-difluorophenyl)pyrrolidin-2-yl)methyl)-1H-pyrazol-4-yl)methyl)amino)-4,7,8-trimethyl-7,8-dihydropteridin-6(5H)-one] | < 300 |
| Cc1nc(NCc2cnn([C@@H](C)c3ccc(F)cc3)c2)nc2c1NC(=O)[C@H](C)N2C [Compound 71, (7S)-2-(((1-((S)-1-(4-fluorophenyl)ethyl)-1H-pyrazol-4-yl)methyl)amino)-4,7,8-trimethyl-7,8-dihydropteridin-6(5H)-one] | 300 to 1000 |
| CCN1C(=O)[C@H](C)N(C)c2nc(N[C@H]3C[C@H](Oc4cc(F)c(F)c(F)c4)C3)nc(C)c21 [Compound 312, (7S)-5-ethyl-4,7,8-trimethyl-2-((trans-3-(3,4,5-trifluorophenoxy)-cyclobutyl)amino)-7,8-dihydropteridin-6(5H)-one] | < 300 |
| Cc1nc(NCc2cnn(Cc3ccc(C(F)(F)F)nc3)c2)nc2c1NC(=O)C1(COC1)N2C [Compound 600, 4′,8′-dimethyl-2′-(((1-((6-(trifluoromethyl)pyridin-3-yl)methyl)-1H-pyrazol-4-yl)methyl)amino)-5′,8′-dihydro-6′H-spiro[oxetane-3,7′-pteridin]-6′-one] | 1000 to 5000 |
| Cc1nc(NCc2cnn(-c3ccc(F)cc3F)c2)nc2c1NC(=O)[C@H](C)N2C [Compound 98, (7S)-2-(((1-(2,4-difluorophenyl)-1H-pyrazol-4-yl)methyl)amino)-4,7,8-trimethyl-7,8-dihydropteridin-6(5H)-one] | 1000 to 5000 |
| Cc1nc(NCc2cnn(Cc3cc(F)c(F)cc3F)c2)nc2c1N(C)C(=O)[C@H](C)N2C [Compound 16, (7S)-4,5,7,8-tetramethyl-2-(((1-(2,4,5-trifluorobenzyl)-1H-pyrazol-4-yl)methyl)amino)-7,8-dihydropteridin-6(5H)-one] | < 300 |
| Cc1nc(NCc2cnn(Cc3ccc(Cl)nc3)c2)nc2c1NC(=O)[C@H](C1CCC1)N2C [Compound 566, (7S)-2-(((1-((6-chloropyridin-3-yl)methyl)-1H-pyrazol-4-yl)methyl)amino)-7-cyclobutyl-4,8-dimethyl-7,8-dihydropteridin-6(5H)-one] | < 300 |
| C[C@H]1C(=O)Nc2cnc(NCc3cnn(CCOc4ccc(F)cc4)c3)nc2N1C [Compound 109, (7S)-2-(((1-(2-(4-fluorophenoxy)ethyl)-1H-pyrazol-4-yl)methyl)amino)-7,8-dimethyl-7,8-dihydropteridin-6(5H)-one] | 1000 to 5000 |
| C[C@H]1C(=O)Nc2cnc(NCc3cnn(Cc4ccc(C(F)(F)F)nc4)c3)nc2N1C [Compound 195, (7S)-7,8-dimethyl-2-(((1-((6-(trifluoromethyl)pyridin-3-yl)methyl)-1H-pyrazol-4-yl)methyl)amino)-7,8-dihydropteridin-6(5H)-one] | 300 to 1000 |
| Cc1nc(N[C@H]2C[C@H](Oc3ccc(F)cc3F)C2)nc2c1N(C)C(=O)[C@H](C)N2C [Compound 296, (7S)-2-((trans-3-(2,4-difluorophenoxy)cyclobutyl)amino)-4,5,7,8-tetramethyl-7,8-dihydropteridin-6(5H)-one] | < 300 |

Continued, values first:

| IC50 [nM] | SMILES |
| --- | --- |
| 300 to 1000 | COc1cc(F)ccc1CN1CC(Nc2nc(C)c3c(n2)N(C)[C@@H](C(C)C)C(=O)N3)C1 [Compound 603, (S)-2-((1-(4-fluoro-2-methoxybenzyl)azetidin-3-yl)amino)-7-isopropyl-4,8-dimethyl-7,8-dihydropteridin-6(5H)-one] |
| 1000 to 5000 | Cc1nc(N[C@H]2CC[C@@H](N(C)c3ccc(C(F)(F)F)cc3)C2)nc2c1NC(=O)[C@H](C(C)C)N2C [Compound 502, (S)-7-isopropyl-4,8-dimethyl-2-(((1S,3R)-3-(methyl(4-(trifluoromethyl)phenyl)amino)cyclopentyl)amino)-7,8-dihydropteridin-6(5H)-one] |
| 1000 to 5000 | Cc1nc(NC2CN(C(=O)C3CCC(F)(F)CC3)C2)nc2c1NC(=O)[C@H](C(C)C)N2C [Compound 543, (S)-2-((1-(4,4-difluorocyclohexane-1-carbonyl)azetidin-3-yl)amino)-7-isopropyl-4,8-dimethyl-7,8-dihydropteridin-6(5H)-one] |
| 300 to 1000 | Cc1nc(N[C@H]2C[C@@H](Nc3cccc(C(F)(F)F)n3)C2)nc2c1NC(=O)[C@H](C(C)C)N2C [Compound 532, (S)-7-isopropyl-4,8-dimethyl-2-((cis-3-((6-(trifluoromethyl)pyridin-2-yl)amino)cyclobutyl)amino)-7,8-dihydropteridin-6(5H)-one] |
| < 300 | Cc1nc(N[C@H]2C[C@H](NCc3cc(F)c(F)c(F)c3)C2)nc2c1NC(=O)[C@H](C(C)C)N2C [Compound 535, (S)-7-isopropyl-4,8-dimethyl-2-((trans-3-((3,4,5-trifluorobenzyl)amino)cyclobutyl)amino)-7,8-dihydropteridin-6(5H)-one] |
| < 300 | Cc1nc(NC2CN(C(=O)c3cc(C(F)(F)F)nn3C)C2)nc2c1NC(=O)[C@H](C(C)C)N2C [Compound 596, (S)-7-isopropyl-4,8-dimethyl-2-((1-(1-methyl-3-(trifluoromethyl)-1H-pyrazole-5-carbonyl)azetidin-3-yl)amino)-7,8-dihydropteridin-6(5H)-one] |
| 300 to 1000 | Cc1nc(N[C@H]2C[C@@H](NC(=O)Nc3ccc(F)cc3)C2)nc2c1NC(=O)[C@H](C)N2C [Compound 458, 1-(4-fluorophenyl)-3-(cis-3-(((S)-4,7,8-trimethyl-6-oxo-5,6,7,8-tetrahydropteridin-2-yl)amino)cyclobutyl)urea] |
| < 300 | Cc1nc(N[C@H]2C[C@H](Oc3ccc(OC(F)(F)F)c(F)c3)C2)nc2c1NC(=O)[C@H](C)N2C [Compound 359, (7S)-2-((trans-3-(3-fluoro-4-(trifluoromethoxy)phenoxy)cyclobutyl)amino)-4,7,8-trimethyl-7,8-dihydropteridin-6(5H)-one] |
| ≥ 5000 | Cc1nc(N[C@H]2CC[C@@H](Oc3cc(F)c(F)c(F)c3)C2)nc2c1NC(=O)[C@H](C)N2C (mixture of isomers) [Compound 259, (7S)-4,7,8-trimethyl-2-((cis-3-(3,4,5-trifluorophenoxy)cyclopentyl)amino)-7,8-dihydropteridin-6(5H)-one] |
| < 300 | Cc1nc(NCc2cnn(Cc3ccnc(Cl)c3)c2)nc2c1NC(=O)[C@H](C(C)C)N2C [Compound 446, (7S)-2-(((1-((2-chloropyridin-4-yl)methyl)-1H-pyrazol-4-yl)methyl)amino)-7-isopropyl-4,8-dimethyl-7,8-dihydropteridin-6(5H)-one] |
| ≥ 5000 | Cc1nc(N[C@H]2C[C@H](Oc3cc(F)c(O)c(F)c3)C2)nc2c1NC(=O)[C@H](C)N2C [Compound 349, (7S)-2-((trans-3-(3,5-difluoro-4-hydroxyphenoxy)cyclobutyl)amino)-4,7,8-trimethyl-7,8-dihydropteridin-6(5H)-one] |
| < 300 | Cc1nc(NC2CN(C(=O)c3ccc(C(F)(F)F)cc3)C2)nc2c1NC(=O)[C@H](C(C)C)N2C [Compound 622, (S)-7-isopropyl-4,8-dimethyl-2-((1-(4-(trifluoromethyl)benzoyl)azetidin-3-yl)amino)-7,8-dihydropteridin-6(5H)-one] |

Same assay, conditions: Homo sapiens, COLO 205, 5 h, Colo 205 cells with stably transfected TCF/LEF luciferase reporter; five hours after addition of compound; read-out: TCF reporter Colo205

| IC50 [nM] | SMILES |
| --- | --- |
| ≥ 5000 | Cc1nc(N(Cc2cnn(Cc3ccc(C(F)(F)F)nc3)c2)C(=O)CN)nc2c1NC(=O)[C@H](C)N2C [Compound 406, (7S)-2-amino-N-((1-((6-(trifluoromethyl)pyridin-3-yl)methyl)-1H-pyrazol-4-yl)methyl)-N-(4,7,8-trimethyl-6-oxo-5,6,7,8-tetrahydropteridin-2-yl)acetamide] |

Same assay, conditions: Homo sapiens, COLO 205, 5 h, R-isomer at C2 (corresponding to C2 S-isomer); Colo 205 TCF/LEF luciferase reporter, 5 h; read-out: TCF reporter Colo205 IC50

| IC50 [nM] | SMILES |
| --- | --- |
| < 300 | CCN1C(=O)[C@@H](C)N(C(C)C)c2nc(NCc3cnn(Cc4cc(F)c(F)c(F)c4)c3)ncc21 [Compound I-1463] |
| 1000 to 5000 | COCC[C@@H]1C(=O)Nc2c(C)nc(NCc3cnn(Cc4ccc(C(F)(F)F)nc4)c3)nc2N1C [Compound I-1647] |
